Measured values from the CheMixHub viscosity set.
Where “and” joins values, the source holds several entries; their conditions need not be identical. Equal entries are not always repeated. ± gives the uncertainty stated by the source.

Assay: xn = mol fraction of the nth substance listed

C[N+](C)(C)CCO.[Cl-] + OCCO
Details | viscosity
293.15 K, 100 kPa, x1 = 0.333 | 40.01 ± 0.53 mPa·s
293.15 K, 100 kPa, x1 = 0.34 | 59.14 ± 2.4 mPa·s
293.15 K, 101 kPa, x1 = 0.333 | 42.3 ± 3.4 mPa·s
293.15 K, 101 kPa, x2 = 0.7 | 56.22 ± 1.2 mPa·s
293.15 K, 101.3 kPa, x2 = 0.6675 | 60 ± 2.5 mPa·s
293.15 K, 101.3 kPa, x2 = 0.7 | 53.07 ± 0.32 mPa·s
293.15 K, 101.3 kPa, x2 = 0.7499 | 37.35 ± 1.6 mPa·s
293.15 K, 101.3 kPa, x2 = 0.7999 | 31.8 ± 1.3 mPa·s
293.15 K, 101.3 kPa, x2 = 0.8332 | 28.49 ± 1.2 mPa·s
293.15 K, 101.3 kPa, x2 = 0.8571 | 25.56 ± 1.1 mPa·s
298 K, 100 kPa, x1 = 0.333 | 45.1 ± 3.7 mPa·s
298 K, 101 kPa, x1 = 0.333 | 42 ± 3 mPa·s
298.15 K, 100 kPa, x1 = 0.333 | 41 ± 1 mPa·s and 32.73 ± 0.44 mPa·s
298.15 K, 100 kPa, x1 = 0.34 | 47.74 ± 1.9 mPa·s
298.15 K, 101 kPa, x1 = 0.2 | 20.1 ± 0.8 mPa·s
298.15 K, 101 kPa, x1 = 0.333 | 35.1 ± 1.4 mPa·s
298.15 K, 101.1 kPa, x1 = 0.333 | 39.45 ± 8.3 mPa·s
298.15 K, 101.3 kPa, x2 = 0.6675 | 48.59 ± 2 mPa·s
298.15 K, 101.3 kPa, x2 = 0.7 | 43.03 ± 0.49 mPa·s
298.15 K, 101.3 kPa, x2 = 0.7499 | 31.12 ± 1.3 mPa·s
298.15 K, 101.3 kPa, x2 = 0.7999 | 26.21 ± 1.1 mPa·s
298.15 K, 101.3 kPa, x2 = 0.8332 | 23.36 ± 0.97 mPa·s
298.15 K, 101.3 kPa, x2 = 0.8571 | 20.93 ± 0.87 mPa·s
298.15 K, 101.33 kPa, x2 = 0.7 | 48 ± 5 mPa·s
298.2 K, 101.3 kPa, x1 = 0.1247 | 20.5 ± 0.8 mPa·s
298.2 K, 101.3 kPa, x1 = 0.1675 | 23.2 ± 0.9 mPa·s
298.2 K, 101.3 kPa, x1 = 0.2 | 24.5 ± 1 mPa·s
298.2 K, 101.3 kPa, x1 = 0.2513 | 27.2 ± 1.1 mPa·s
303 K, 100 kPa, x1 = 0.333 | 36.8 ± 3 mPa·s
303 K, 101 kPa, x1 = 0.3333 | 51.8 ± 1.5 mPa·s
303.15 K, 100 kPa, x1 = 0.333 | 27.13 ± 0.36 mPa·s and 52.15 ± 2.1 mPa·s
303.15 K, 100 kPa, x1 = 0.34 | 39.1 ± 1.6 mPa·s
303.15 K, 101 kPa, x1 = 0.333 | 33.1 ± 2.7 mPa·s
303.15 K, 101 kPa, x2 = 0.7 | 35 ± 10 mPa·s and 37.15 ± 0.78 mPa·s
303.15 K, 101.3 kPa, x2 = 0.6675 | 39.78 ± 1.7 mPa·s
303.15 K, 101.3 kPa, x2 = 0.7 | 35.06 ± 0.4 mPa·s
303.15 K, 101.3 kPa, x2 = 0.7499 | 25.72 ± 1.1 mPa·s
303.15 K, 101.3 kPa, x2 = 0.7999 | 21.7 ± 0.9 mPa·s
303.15 K, 101.3 kPa, x2 = 0.8332 | 19.36 ± 0.8 mPa·s
303.15 K, 101.3 kPa, x2 = 0.8571 | 17.34 ± 0.72 mPa·s
308 K, 100 kPa, x1 = 0.333 | 30.8 ± 2.5 mPa·s
308 K, 101 kPa, x1 = 0.3333 | 45.7 ± 1 mPa·s
308.15 K, 100 kPa, x1 = 0.333 | 22.76 ± 0.3 mPa·s
308.15 K, 100 kPa, x1 = 0.34 | 32.42 ± 1.3 mPa·s
308.15 K, 101 kPa, x1 = 0.3333 | 30.9 ± 1 mPa·s
308.15 K, 101.3 kPa, x2 = 0.6675 | 33.15 ± 1.4 mPa·s
308.15 K, 101.3 kPa, x2 = 0.7 | 29.02 ± 0.33 mPa·s
308.15 K, 101.3 kPa, x2 = 0.7499 | 21.63 ± 0.91 mPa·s
308.15 K, 101.3 kPa, x2 = 0.7999 | 18.29 ± 0.75 mPa·s
308.15 K, 101.3 kPa, x2 = 0.8332 | 16.22 ± 0.67 mPa·s
308.15 K, 101.3 kPa, x2 = 0.8571 | 14.52 ± 0.6 mPa·s
308.2 K, 101.3 kPa, x1 = 0.1247 | 15.3 ± 0.6 mPa·s
308.2 K, 101.3 kPa, x1 = 0.1675 | 17.4 ± 0.7 mPa·s
308.2 K, 101.3 kPa, x1 = 0.2 | 18.6 ± 0.8 mPa·s
308.2 K, 101.3 kPa, x1 = 0.2513 | 20.7 ± 0.8 mPa·s
313 K, 100 kPa, x1 = 0.333 | 26 ± 2.1 mPa·s
313 K, 101 kPa, x1 = 0.333 | 23 ± 2 mPa·s
313 K, 101 kPa, x1 = 0.3333 | 40.7 ± 0.9 mPa·s
313.15 K, 100 kPa, x1 = 0.333 | 19.32 ± 0.26 mPa·s and 41.27 ± 1.7 mPa·s
313.15 K, 100 kPa, x1 = 0.34 | 27.44 ± 1.1 mPa·s
313.15 K, 101 kPa, x1 = 0.333 | 26.3 ± 2.1 mPa·s
313.15 K, 101 kPa, x1 = 0.3333 | 25.8 ± 0.8 mPa·s
313.15 K, 101 kPa, x2 = 0.7 | 25.84 ± 0.53 mPa·s
313.15 K, 101.3 kPa, x2 = 0.6675 | 27.77 ± 1.2 mPa·s
313.15 K, 101.3 kPa, x2 = 0.7 | 24.22 ± 0.27 mPa·s
313.15 K, 101.3 kPa, x2 = 0.7499 | 18.27 ± 0.77 mPa·s
313.15 K, 101.3 kPa, x2 = 0.7999 | 15.52 ± 0.64 mPa·s
313.15 K, 101.3 kPa, x2 = 0.8332 | 13.72 ± 0.57 mPa·s
313.15 K, 101.3 kPa, x2 = 0.8571 | 12.3 ± 0.51 mPa·s
318 K, 100 kPa, x1 = 0.333 | 21.6 ± 1.7 mPa·s
318 K, 101 kPa, x1 = 0.3333 | 36.4 ± 0.8 mPa·s
318.15 K, 100 kPa, x1 = 0.333 | 16.57 ± 0.22 mPa·s
318.15 K, 100 kPa, x1 = 0.34 | 23.03 ± 0.93 mPa·s
318.15 K, 101 kPa, x1 = 0.2 | 10.5 ± 0.4 mPa·s
318.15 K, 101 kPa, x1 = 0.333 | 15.6 ± 0.7 mPa·s
318.15 K, 101 kPa, x1 = 0.3333 | 21.9 ± 0.7 mPa·s
318.15 K, 101.3 kPa, x2 = 0.6675 | 23.61 ± 0.98 mPa·s
318.15 K, 101.3 kPa, x2 = 0.7 | 20.47 ± 0.23 mPa·s
318.15 K, 101.3 kPa, x2 = 0.7499 | 15.68 ± 0.66 mPa·s
318.15 K, 101.3 kPa, x2 = 0.7999 | 13.3 ± 0.55 mPa·s
318.15 K, 101.3 kPa, x2 = 0.8332 | 11.67 ± 0.48 mPa·s
318.15 K, 101.3 kPa, x2 = 0.8571 | 10.51 ± 0.44 mPa·s
318.2 K, 101.3 kPa, x1 = 0.1247 | 11.4 ± 0.5 mPa·s
318.2 K, 101.3 kPa, x1 = 0.1675 | 13.1 ± 0.5 mPa·s
318.2 K, 101.3 kPa, x1 = 0.2 | 14.2 ± 0.6 mPa·s
318.2 K, 101.3 kPa, x1 = 0.2513 | 16.3 ± 0.7 mPa·s
323 K, 100 kPa, x1 = 0.333 | 18.8 ± 1.5 mPa·s
323 K, 101 kPa, x1 = 0.333 | 16 ± 1 mPa·s
323 K, 101 kPa, x1 = 0.3333 | 32.8 ± 0.7 mPa·s
323.15 K, 100 kPa, x1 = 0.333 | 14.33 ± 0.19 mPa·s and 33.33 ± 1.4 mPa·s
323.15 K, 101 kPa, x1 = 0.333 | 21.2 ± 1.7 mPa·s
323.15 K, 101 kPa, x1 = 0.3333 | 18.8 ± 0.6 mPa·s
323.15 K, 101.3 kPa, x2 = 0.6675 | 20.3 ± 0.84 mPa·s
323.15 K, 101.3 kPa, x2 = 0.7 | 17.41 ± 0.2 mPa·s
323.15 K, 101.3 kPa, x2 = 0.7499 | 13.57 ± 0.57 mPa·s
323.15 K, 101.3 kPa, x2 = 0.7999 | 11.5 ± 0.48 mPa·s
323.15 K, 101.3 kPa, x2 = 0.8332 | 9.98 ± 0.41 mPa·s
323.15 K, 101.3 kPa, x2 = 0.8571 | 9.07 ± 0.38 mPa·s
